In patent US7169813B2, “4-oxo-fenretinide, administered alone and in combination with fenretinide, as preventive and therapeutic agent for cancer” (Fondazione IRCCS “Istituto Nazionale Dei Tumori”, priority 2004, dated 2007):

Key:
[1] = system: A2780/HPR; details: A2780/HPR clone versus A2780; cited from earlier work
[2] = system: A2780; test: Apoptosis induction (Cell Death Detection ELISA, DNA fragmentation); type: cell-based, human; details: 5 μM, 24 hr
Protocol: Although the mechanism of action of 4-HPR is not well understood, its tumor growth inhibitory effects have been attributed to apoptosis induction (Supino et al., Int. J. Cancer, 1996, 65:491–497). The apoptosis inducing effects of 4-oxo-4-HPR were compared with those of 4-HPR in the human ovarian carcinoma cell line A2780 and in its counterpart A2780/HPR, with induced resistance to 4-HPR. Apoptosis was evaluated by a Cell Death Detection ELISA Plus Assay Kit (Roche Diagnostic GmbH, Germany) according to the manufacturer's instructions. This assay quantitates the amount of cytoplasmic histone-associated DNA fragments which increases during apoptosis. Cells were seeded in 96-well cell culture plates and treated the day after with 5 μM 4-oxo-4-HPR or 4-HPR for 24 hr.

[3] = system: ovarian tumor cell lines; test: Growth inhibition, ovarian tumor cell lines (FIG. 2); type: cell-based, human; details: all tested ovarian tumor cell lines; 72 hr
Protocol: The following human ovarian carcinoma cell lines were tested: A2780 was obtained from Dr. R. F. Ozols (National Cancer Institute, Bethesda, Md., USA); IGROV-1 was obtained from Dr. J. Benard (Villejuif, France); OVCA432 was obtained from Dr. R. C. Knapp (Boston, Mass., USA); OAW42 and SKOV-3 were purchased from ATCC (Rockville, Md., USA). A2780/HPR, a 4-HPR— resistant ovarian carcinoma cell line, was obtained in our laboratory by continuous exposure of A2780 cells to increasing concentrations of 4-EPR as previously described (Appierto et al., Br. J. Cancer, 2001, 84:1528–1534; Prinetti et al., J. Biol. Chem., 2003, 278:5574–5583). Briefly, cells surviving 60 transplants in 4-HPR —containing medium (3 transplants at 1 μM, 11 transplants at 2 μM, 8 transplants at 3 μM, and 38 transplants at 5 μM) were cloned by limiting dilution. […] Therefore, A2780/HPR cells were continuously maintained in 5 μM 4-HPR and seeded without 4-HPR in all the experiments performed to test their sensitivity to 4-oxo-4-HPR. […]
For the growth inhibition assays, cells were seeded at a density of 3500 cells per well in 96 cluster tissue culture plates, and treated 24 hr after seeding with different concentrations of 4-oxo-4-HPR or 4-HPR. […] The survival of treated cells was calculated for the various drug concentrations as percentage of the survival of control cells. […]

[4] = system: A2780; test: Growth inhibition (sulforhodamine B assay), single agents and combination; type: cell-based, human; details: Homo sapiens, A2780, 72 h, read-out: 50% Inhibitory Concentrations (IC50) at 72 h
Protocol: The following human ovarian carcinoma cell lines were tested: A2780 was obtained from Dr. R. F. Ozols (National Cancer Institute, Bethesda, Md., USA); IGROV-1 was obtained from Dr. J. Benard (Villejuif, France); OVCA432 was obtained from Dr. R. C. Knapp (Boston, Mass., USA); OAW42 and SKOV-3 were purchased from ATCC (Rockville, Md., USA). A2780/HPR, a 4-HPR— resistant ovarian carcinoma cell line, was obtained in our laboratory by continuous exposure of A2780 cells to increasing concentrations of 4-EPR as previously described (Appierto et al., Br. J. Cancer, 2001, 84:1528–1534; Prinetti et al., J. Biol. Chem., 2003, 278:5574–5583). Briefly, cells surviving 60 transplants in 4-HPR —containing medium (3 transplants at 1 μM, 11 transplants at 2 μM, 8 transplants at 3 μM, and 38 transplants at 5 μM) were cloned by limiting dilution. […] Therefore, A2780/HPR cells were continuously maintained in 5 μM 4-HPR and seeded without 4-HPR in all the experiments performed to test their sensitivity to 4-oxo-4-HPR.
The following human breast tumor cell lines, obtained from Dr. R. Sutherland (Garvan Institute, Sydney, Australia) were tested: T-47D, BT-20 and MCF-7. The following human neuroblastoma cell lines, purchased from ATCC, were tested: SK-N-BE, SK-N-SH, SK-N-MC, and GI-LI-N. All cell lines were grown in monolayer, in medium containing 10% fetal bovine serum (Invitrogen) in 5% CO2 at 37° C. The medium for A2780, A2780/HPR, IGROV-1, OVCA432, SKOV-3, T-47D, BT-20, MCF-7, GI-LI-N and SK-N-BE cells was RPMI 1640 (Cambrex, Verviers, Belgium) and the medium for OAW42, SK-N-MC and SK-N-SH cells was EMEM (ATCC).
For the growth inhibition assays, cells were seeded at a density of 3500 cells per well in 96 cluster tissue culture plates, and treated 24 hr after seeding with different concentrations of 4-oxo-4-HPR or 4-HPR. 4-oxo-4-HPR was dissolved in absolute ethanol and 4-HPR (obtained from Dr. J. A. Crowell —NCI Bethesda, Md., USA) was dissolved in Me2SO. […] Control cultures received the same amount of ethanol or Me2SO as the treated cultures. 72 hr after treatment cell number was estimated by using the sulforhodamine B assay according to Monks et al., (J. Natl. Cancer, 1991, 11: 757–766). The survival of treated cells was calculated for the various drug concentrations as percentage of the survival of control cells. The antiproliferative activity of 4-oxo-4-HPR and 4-HPR in each cell line, was tested in three separate experiments and the average values ±SD are reported in FIGS. 2, 3, and 4.
The antiproliferative effect of the combination of the two drugs, administered at one single dose, was also tested in other ovarian carcinoma cell lines and in breast tumor cell lines. The type of interaction between 4-HPR and 4-oxo-4-HPR was assessed by the method of Drevinko et al., as described in Cancer Biochem. Biophys., 1976, 1:187–195. For this evaluation the drugs were assumed to provide independent effects. The combination index (CI) was calculated as follows: survival fraction (SF) of the combination of 4-HPR+4-oxo-4-HPR divided by (SF 4-HPR×SF 4-oxo-4-HPR). The results for CI are defined as follows: CI=1 indicates an additive effect, CI<1 indicates a supra-additive effect and CI>1 indicates a sub-additive effect.

For `CC1=C(/C=C/C(C)=C/C=C/C(C)=C/C(=O)Nc2ccc(O)cc2)C(C)(C)CCC1` [4-HPR, N-(4-hydroxyphenyl)retinamide, reference compound], the “resistance of A2780/HPR to 4-HPR” value [1] is listed as 10 fold.
With `CC1=C(/C=C/C(C)=C/C=C/C(C)=C/C(=O)Nc2ccc(O)cc2)C(C)(C)CCC1=O` [4-oxo-4-HPR, 4-oxo-N-(4-hydroxyphenyl)retinamide] the “induction of apoptosis (DNA fragmentation, fold versus control cells)” value [2] was “higher than that of 4-HPR”, the “reducing tumor cell survival (FIG. 2), compared with 4-HPR, in words” value [3] was “more effective than 4-HPR” and the IC50 [4] was 500 nM.
